Test results from ChEMBL document CHEMBL1201862, “PubChem BioAssay data set” (2004).
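Briefly, cells in 96-well plates were exposed to five compound concentrations for 48 h, and endpoints were estimated by linear interpolation. Abbreviation: GI50, concentration required for 50% inhibition of growth.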 The source made the active and inactive calls. Rule as the data show it: active = GI50 up to about 1.1 µM and inactive = higher.

What was measured:
Assay in all cases: NCI anticancer screen, dose series, 48 h
UACC-257 = tested on: UACC-257
SNB-75 = tested on: SNB-75
U-251 = tested on: U-251
SNB-19 = tested on: SNB-19
K562 = tested on: K562
HOP-62 = tested on: HOP-62
SK-MEL-28 = tested on: SK-MEL-28
SF-539 = tested on: SF-539
MCF7 = tested on: MCF7
HT-29 = tested on: HT-29
SF-268 = tested on: SF-268
OVCAR-3 = tested on: OVCAR-3
UACC-62 = tested on: UACC-62
786-0 = tested on: 786-0
ACHN = tested on: ACHN
HCC 2998 = tested on: HCC 2998
HL-60 = tested on: HL-60
DLD-1 = tested on: DLD-1
SW-620 = tested on: SW-620
M14 = tested on: M14

| Compound | GI50 (UACC-257) | GI50 (SNB-75) | GI50 (U-251) | GI50 (SNB-19) | GI50 (K562) | GI50 (HOP-62) | GI50 (SK-MEL-28) | GI50 (SF-539) | GI50 (MCF7) | GI50 (HT-29) | GI50 (SF-268) | GI50 (OVCAR-3) | GI50 (UACC-62) | GI50 (786-0) | GI50 (ACHN) | GI50 (HCC 2998) | GI50 (HL-60) | GI50 (DLD-1) | GI50 (SW-620) | GI50 (M14) |
| --- | --- | --- | --- | --- | --- | --- | --- | --- | --- | --- | --- | --- | --- | --- | --- | --- | --- | --- | --- | --- |
| C=C1C(=O)OC2/C=C(\COC(C)=O)CCC(OC(C)=O)C3=CC(OC3=O)C12 (centres undefined) | 3.57 µM (inactive) | 15.9 µM (inactive) | 12.2 µM (inactive) | 18 µM (inactive) | 2.3 µM (inactive) | 19.8 µM (inactive) | 3.99 µM (inactive) | 6.64 µM (inactive) | 3.69 µM (inactive) | 3.9 µM (inactive) | 22.3 µM (inactive) | 4.15 µM (inactive) | 4.26 µM (inactive) | 6.56 µM (inactive) | 3.12 µM (inactive) | 14.4 µM (inactive) | 2.23 µM (inactive) | 2.33 µM (inactive) | 1.77 µM (inactive) | 2.91 µM (inactive) |
| CC1=C(C(=O)Nc2ccccc2)C(c2ccc(C3C(C(=O)Nc4ccccc4)=C(C)NC(C)=C3C(=O)Nc3ccccc3)cc2)C(C(=O)Nc2ccccc2)=C(C)N1 | 2.13 µM (inactive) | 8.2 µM (inactive) | 1.49 µM (inactive) | 6.31 µM (inactive) | 2.67 µM (inactive) | 3.68 µM (inactive) | 1.79 µM (inactive) | 3.56 µM (inactive) | 2.86 µM (inactive) | 1.85 µM (inactive) | 2.2 µM (inactive) | 4.38 µM (inactive) | 1.67 µM (inactive) | 2.54 µM (inactive) | 2.04 µM (inactive) | 2.47 µM (inactive) | 2.43 µM (inactive) | 2.38 µM (inactive) | 2.11 µM (inactive) | 2.5 µM (inactive) |
| Cc1c(C)c(CC(=O)N2CC2)c(C)c(C)c1CC(=O)N1CC1 | 17.6 µM (inactive) | 6.73 µM (inactive) | 5.56 µM (inactive) | 10.6 µM (inactive) | 12.6 µM (inactive) | 5.21 µM (inactive) | 17 µM (inactive) | 3.52 µM (inactive) | 3.22 µM (inactive) | 6.93 µM (inactive) | 2.41 µM (inactive) | 19.5 µM (inactive) | 3.33 µM (inactive) | 3.56 µM (inactive) | 1.43 µM (inactive) | 11.4 µM (inactive) | 0.705 µM (active) | 17.5 µM (inactive) | 14.5 µM (inactive) | 5.25 µM (inactive) |
| COc1c(OC(C)=O)c(OC(C)=O)cc2c1-c1ccc(SC)c(=O)cc1C(NC(C)=O)CC2 (centres undefined) | 3.72 µM (inactive) | 0.299 µM (active) | 0.601 µM (active) | 0.42 µM (active) | 0.316 µM (active) | 0.681 µM (active) | 0.342 µM (active) | 0.254 µM (active) | 0.124 µM (active) | 0.461 µM (active) | 0.472 µM (active) | 0.142 µM (active) | 0.397 µM (active) | 1.69 µM (inactive) | 11.6 µM (inactive) | 0.454 µM (active) | 0.208 µM (active) | 0.908 µM (active) | 0.959 µM (active) | 0.698 µM (active) |
| CCOC(=O)N(c1ccccc1)N(CC)C(=O)/C(C)=N/Nc1ccc([N+](=O)[O-])cc1 | 15 µM (inactive) | 18.1 µM (inactive) | 15 µM (inactive) | 16.2 µM (inactive) | 14.7 µM (inactive) | 16.1 µM (inactive) | 17.3 µM (inactive) | 16.1 µM (inactive) |  | 17.1 µM (inactive) | 17.2 µM (inactive) | 16.2 µM (inactive) | 13.6 µM (inactive) | 17.1 µM (inactive) | 17.7 µM (inactive) | 18 µM (inactive) | 11 µM (inactive) | 15.4 µM (inactive) | 19.3 µM (inactive) | 17.9 µM (inactive) |
| COc1cc(/C=C(\C#N)C(N)=C(C#N)C#N)cc(O)c1O | > 100 µM (inactive) | > 88.5 µM (inactive) | > 88.7 µM (inactive) | > 87.5 µM (inactive) | > 79.6 µM (inactive) | > 71.6 µM (inactive) | > 100 µM (inactive) | > 100 µM (inactive) | 95.3 µM (inactive) | > 83.9 µM (inactive) | > 87.9 µM (inactive) | > 56.4 µM (inactive) | > 93.5 µM (inactive) | > 100 µM (inactive) | > 100 µM (inactive) | > 100 µM (inactive) | 26.9 µM (inactive) | > 100 µM (inactive) | > 76.4 µM (inactive) | > 100 µM (inactive) |
